Experimental data published in patent US20230118955A1 (priority 2020, published 2023).
Marks after values point to notes of the source that are not given here.

Tests used:
[1] = system: 3CLpro protease; format: biochemical, SARS-CoV
[2] = system: SARS-CoV-1; format: cell-based
[3] = system: SARS-CoV-2; format: cell-based
[4] = system: trypsin; assay: Trypsin (surrogate for TMPRSS2) cleavage of Site S2' peptide (Peptide 2, Acetyl-SKPSKR-pNA) after incubation with MGO; format: biochemical; details: 8 mM MGO, 400 μM peptide 2, 5 nM trypsin
[5] = system: recombinant human furin; assay: Furin cleavage of Site S1 peptide (Peptide 1, Acetyl-SPRRAR-pNA) after incubation with MGO; format: biochemical; details: 8 mM MGO, 400 μM peptide 1, 5 nM furin

O=C(O)C(O)Cc1ccccc1 (stereo not drawn) [3-phenyllactic acid]
inhibition of 3CLpro protease activity (cleavage of pNA substrate) [1]: inhibit activity of 3CLpro protease

CCO [EtOH, ethanol]
LRV (log10 reduction of virus compared to the virus control) [2]: 2.8 log10
Virus (CCID50/0.1 mL) [2]: 1.5 ± 0.2 CCID50/0.1 mL
LRV (log10 reduction of virus compared to the virus control) [3]: 3.9 log10
Virus (CCID50/0.1 mL) [3]: <0.7**** CCID50/0.1 mL

CC(=O)C=O [MGO, methylglyoxal]
reduction in pNA liberated (activation of peptide 2 by trypsin) ([4]; incubation 4 h): 88%
reduction in pNA liberated (activation of peptide 2 by trypsin) ([4]; incubation time 0): 21%
reduction in pNA liberated (activation of peptide 1 by furin) ([5]; incubation 3 h): 97%
reduction in pNA liberated (activation of peptide 1 by furin) ([5]; incubation 4 h): 97%
reduction in pNA liberated (activation of peptide 1 by furin) ([5]; incubation time 0): 90%

O=c1c(O)c(-c2ccccc2)oc2cc(O)cc(O)c12 [galangin]
inhibition of 3CLpro protease activity (cleavage of pNA substrate) [1]: inhibit activity of 3CLpro protease

COc1ccc([C@@H]2CC(=O)c3c(O)cc(O[C@@H]4O[C@H](CO[C@@H]5O[C@@H](C)[C@H](O)[C@@H](O)[C@H]5O)[C@@H](O)[C@H](O)[C@H]4O)cc3O2)cc1O [hesperidin]
inhibition of 3CLpro protease activity (cleavage of pNA substrate) [1]: inhibit activity of 3CLpro protease

O=c1c(O)c(-c2ccc(O)cc2)oc2cc(O)cc(O)c12 [kaempferol]
inhibition of 3CLpro protease activity (cleavage of pNA substrate) [1]: inhibit activity of 3CLpro protease

O=c1cc(-c2ccc(O)c(O)c2)oc2cc(O)cc(O)c12 [luteolin]
inhibition of 3CLpro protease activity (cleavage of pNA substrate) [1]: inhibit activity of 3CLpro protease

O=C(O)/C=C/c1ccc(O)cc1 [p-coumaric acid]
inhibition of 3CLpro protease activity (cleavage of pNA substrate) [1]: inhibit activity of 3CLpro protease

O=C1c2c(O)cc(O)cc2O[C@H](c2ccccc2)[C@H]1O [pinobanksin]
inhibition of 3CLpro protease activity (cleavage of pNA substrate) [1]: inhibit activity of 3CLpro protease

O=C1C[C@@H](c2ccccc2)Oc2cc(O)cc(O)c21 [pinocembrin]
inhibition of 3CLpro protease activity (cleavage of pNA substrate) [1]: inhibit activity of 3CLpro protease

O=c1c(O)c(-c2ccc(O)c(O)c2)oc2cc(O)cc(O)c12 [quercetin]
inhibition of 3CLpro protease activity (cleavage of pNA substrate) [1]: inhibit activity of 3CLpro protease
